{"source": "patent US20130059907A1", "about": "“WOGONIN-CONTAINING PHARMACEUTICAL COMPOSITION FOR INHIBITING CANCER STEM CELLS GROWTH AND APPLICATION THEREOF” (National Taiwan Normal University, priority 2011, published 2013)", "key": {"A549 cells [1]": {"test_system": "A549 cells", "experiment": "MTT assay (cell proliferation), A549", "format": "cell-based", "conditions": "FIG. 1B", "experimental": "NSCLC cell lines A549, NCI-H460, NCI-H520 and normal lung cell line MRCS were obtained from Bioresource Collection and Research Center (BCRC, Taiwan). A549 cell line was cultured with F12K medium (21127, GIBCO, Carlsbad, U.S.A.). Both NCI-H460 and NCI-H520 cell lines were cultured with RPMI1640 medium (23400, GIBCO, Carlsbad, U.S.A.). MRCS cell line was cultured with MEM medium (41500, GIBCO, Carlsbad, U.S.A.). All media mentioned above contained 10% FBS (10437, GIBCO, Carlsbad, U.S.A.). All cultures were maintained in an incubator (Thermo forma 370, Waltham, U.S.A.) with 5% CO2 at 37° C.\nCells were seeded at 1×10^4 cells per well in a 24-well plate for 16 hours. After that, a sample such as the wogonin solutions with different concentrations and the extract of S. baicalensis (denoted as “SB”) was added into 24-well plate directly, and cultured at 37° C. for 24, 48, and 72 hours, respectively.\nThiazolyl blue tetrazolium bromide (MTT, m5655, Sigma, St. Louis, U.S.A.) solution was prepared in a concentration of 5.5 mg/ml with phosphate buffered saline (PBS) filtered by 0.22 μm membrane. The MTT solution (50 μl) was added to the wells of 24-well plates with A549, NCI-H460, NCI-H520, and MRCS cell lines cultured after 24, 48, and 72 hours. The plates were incubated at 37° C. for 2 hours and then moved out. The media of the wells were removed. […]"}, "A549 cells [2]": {"test_system": "A549 cells", "experiment": "Side population analysis (Hoechst33342, with or without reserpine)", "format": "cell-based", "conditions": "A549, dose of IC50, 48 hours, FIGS. 5A and 5B", "experimental": "A549 cells were seeded in the number of about 3×10^5 in 10 cm dish to give adequate number of cells for analysis. The cells were treated with the extract of S. baicalensis and the wogonin solution in the dose of IC50 for 48 hours. Then, the treated cells were harvested by typsinization and centrifugation. The harvested cells were re-suspended in the number of 1×10^6 cells/ml in culture medium containing 2% FBS, Hoechst33342 dye (5 μg/ml, Invitrogen, Carlsbad, U.S.A.) was added with or without reserpine (50 μM, Sigma, St. Louis, U.S.A.) as a blocking reagent. The cells were further incubated at 37° C. for 2 hours under frequently gentle vortex to ensure uniform staining, and then washed with PBS. PI staining (20 ng/ml) was used to determine the live/dead cells. In order to set up the fluorescence compensation, single staining and non-staining groups were prepared. The cell samples were filtered with nylon mesh (35 μm) to prevent cell aggregation. PI-positive dead cells were primary excluded to avoid false positive signals. Then, the Hoechst blue and red dot plotting was used to determine the side population. A gate of a side population was defined by the diminishing region of two samples groups, i.e. with or without reserpine. The percentages of the side population were further analyzed by Flowjo software (TreeStar, Ashland, U.S.A.)."}}, "data": [{"smiles": "COc1c(O)cc(O)c2c(=O)cc(-c3ccccc3)oc12", "note": "[wogonin solution, wogonin hydrate]", "values": [{"measurement": "inhibition of A549 cell line (concentration dependence)", "setting": "A549 cells [1]; A549, 40, 80, 120, and 160 μM, 48 hours", "value": "increased as the concentration of the wogonin solution increases"}, {"measurement": "IC50", "setting": "A549 cells [1]; Homo sapiens, A549, 48 hours, read-out: half maximal inhibitory concentration (IC50)", "value": "~85", "unit": "µM"}, {"measurement": "side population (SP)", "setting": "A549 cells [2]", "value": "significantly diminished"}]}]}
